Assay results as given in patent US6673827B1, “Methods of treating fungal infections with inhibitors of NAD synthetase enzyme” (priority 1999, dated 2004).
Values after ≈ are worked out from the molar mass of the structure shown. Values joined by “and” are separate entries in the source; they are usually repeats but may differ in a detail not shown here. Equal values may be shown once. Read-outs that look alike come from different tables or passages of the source.

Experiments:
Assay type in all cases: cell-based
[1] = test system: Candida tropicalis ATCC 750; assay: In vitro study of inhibition of growth and lethality against yeast (MIC/MLC susceptibility test), isolate A; settings: for Minimum Lethal Concentration (MLC), A: Table 4B summary, isolate A
[2] = test system: Candida albicans LH-000664533; assay: In vitro study of inhibition of growth and lethality against yeast (MIC/MLC susceptibility test), isolate D; settings: for Minimum Lethal Concentration (MLC), D: Table 4B summary, isolate D
[3] = test system: Torulopsis glabrata ERH-BC9938274; assay: In vitro study of inhibition of growth and lethality against yeast (MIC/MLC susceptibility test), isolate F; settings: for Minimum Inhibitory Conc. (MIC), 24 hr.: read at 24 hr; for MIC: Nakaseomyces glabratus; for Minimum Lethal Concentration (MLC), F: Table 4B summary, isolate F
[4] = test system: Cryptococcus neoformans SLP-BC0012854; assay: In vitro study of inhibition of growth and lethality against yeast (MIC/MLC susceptibility test), isolate H; settings: for Minimum Lethal Concentration (MLC), H: Table 4B summary, isolate H
[5] = test system: Candida tropicalis ATCC 28707; assay: In vitro study of inhibition of growth and lethality against yeast (MIC/MLC susceptibility test), isolate B; settings: for Minimum Lethal Concentration (MLC), B: Table 4B summary, isolate B
[6] = test system: Cryptococcus neoformans DLB-1027594CNC; assay: In vitro study of inhibition of growth and lethality against yeast (MIC/MLC susceptibility test), isolate G; settings: for MIC: DLB1027594CNC; for Minimum Lethal Concentration (MLC), G: Table 4B summary, isolate G
[7] = test system: Torulopsis glabrata JHC-BC9951635; assay: In vitro study of inhibition of growth and lethality against yeast (MIC/MLC susceptibility test), isolate E; settings: for Minimum Inhibitory Conc. (MIC), 24 hr. / Minimum Inhibitory Conc. (MIC), 48 hr. / MIC: isolate assigned by line order; for MIC: Nakaseomyces glabratus; for Minimum Lethal Concentration (MLC), E: Table 4B summary, isolate E
[8] = test system: Candida albicans KJP-000531594; assay: In vitro study of inhibition of growth and lethality against yeast (MIC/MLC susceptibility test), isolate C; settings: for Minimum Inhibitory Conc. (MIC), 24 hr. / Minimum Inhibitory Conc. (MIC), 48 hr. / MIC: Candida albicans; for Minimum Lethal Concentration (MLC), C: Table 4B summary, isolate C
[9] = Torulopsis glabrata, 1st pair of lines, isolate assigned by line order
[10] = Cryptococcus neoformans, 1st pair of lines, read at 72 hr, isolate assigned by line order
[11] = Torulopsis glabrata, 2nd pair of lines, read at 24 hr
[12] = Torulopsis glabrata, 2nd pair of lines, read at 48 hr
[13] = 1st pair of lines, read at 24 hr, isolate not given, assigned by line order and MLC of Table 4B
[14] = 1st pair of lines, read at 48 hr, isolate assigned by line order

## C[C@@H]1[C@H](O)[C@@H](C)/C=C/C=C/C=C/C=C/C=C/C=C/C=C/[C@H](O[C@@H]2O[C@H](C)[C@@H](O)[C@H](N)[C@@H]2O)C[C@@H]2O[C@](O)(C[C@@H](O)C[C@@H](O)[C@H](O)CC[C@@H](O)C[C@@H](O)CC(=O)O[C@H]1C)C[C@H](O)[C@H]2C(=O)O [Amphotericin B]
[1]; Candida tropicalis, 2nd pair of lines, read at 24 hr, isolate assigned by line order
  Minimum Inhibitory Conc. (MIC), 24 hr.: 0.5 µg/mL
[1]; Candida tropicalis, 2nd pair of lines, read at 48 hr, isolate assigned by line order
  Minimum Inhibitory Conc. (MIC), 48 hr.: 0.5 µg/mL and 1 µg/mL
[2]; Candida albicans, 2nd pair of lines, read at 24 hr, isolate assigned by line order
  Minimum Inhibitory Conc. (MIC), 24 hr.: 0.5 µg/mL
[2]; Candida albicans, 2nd pair of lines, read at 48 hr, isolate assigned by line order
  Minimum Inhibitory Conc. (MIC), 48 hr.: 0.5 µg/mL
[3]; [9]
  Minimum Inhibitory Conc. (MIC), 24 hr.: 0.5 µg/mL
[3]; Torulopsis glabrata, 1st pair of lines, read at 48 hr, isolate assigned by line order
  Minimum Inhibitory Conc. (MIC), 48 hr.: 1 µg/mL
[4]; Cryptococcus neoformans, 2nd pair of lines, read at 48 hr, isolate assigned by line order
  Minimum Inhibitory Conc. (MIC), 48 hr.: 0.5 µg/mL and 0.25 µg/mL
[5]; Candida tropicalis, 1st pair of lines, read at 24 hr, isolate assigned by line order
  Minimum Inhibitory Conc. (MIC), 24 hr.: 2 µg/mL
[5]; Candida tropicalis, 1st pair of lines, read at 48 hr, isolate assigned by line order
  Minimum Inhibitory Conc. (MIC), 48 hr.: 4 µg/mL
[6]; Cryptococcus neoformans, 1st pair of lines, read at 48 hr, isolate assigned by line order
  Minimum Inhibitory Conc. (MIC), 48 hr.: 0.25 µg/mL
[6]; [10]
  Minimum Inhibitory Conc. (MIC), 72 hr.: 0.25 µg/mL
[7]; [11]
  Minimum Inhibitory Conc. (MIC), 24 hr.: 0.5 µg/mL
[7]; [12]
  Minimum Inhibitory Conc. (MIC), 48 hr.: 1 µg/mL and 0.5 µg/mL
[8]; [13]
  Minimum Inhibitory Conc. (MIC), 24 hr.: 0.5 µg/mL
[8]; [14]
  Minimum Inhibitory Conc. (MIC), 48 hr.: 1 µg/mL

## COC(=O)c1cc2cc(OCc3ccccc3)ccc2n1CCCCCCCCC[n+]1ccccc1 [Compound 230]
[1]; Candida tropicalis, ATCC750, 24 h, read-out: Minimum Inhibitory Conc. (MIC), 24 hr.
  MIC: 1 µg/mL
[1]; Candida tropicalis, ATCC750, 48 h, read-out: Minimum Inhibitory Conc. (MIC), 48 hr.
  MIC: 1 µg/mL
[2]; Candida albicans, LH000664533, 24 h, read-out: Minimum Inhibitory Conc. (MIC), 24 hr.
  MIC: 1 µg/mL
[2]; Candida albicans, LH000664533, 48 h, read-out: Minimum Inhibitory Conc. (MIC), 48 hr.
  MIC: 1 µg/mL
[3]; ERHBC9938274, 24 h, read-out: Minimum Inhibitory Conc. (MIC), 24 hr., Torulopsis glabrata, 1st pair of lines, read at 24 hr, isolate assigned by line order
  MIC: 1 µg/mL
[3]; ERHBC9938274, 48 h, read-out: Minimum Inhibitory Conc. (MIC), 48 hr., Torulopsis glabrata, 1st pair of lines, read at 48 hr, isolate assigned by line order
  MIC: 2 µg/mL
[3]; [9]
  Minimum Inhibitory Conc. (MIC), 24 hr.: 2 µg/mL
[4]; Cryptococcus neoformans, SLPBC0012854, 48 h, read-out: Minimum Inhibitory Conc. (MIC), 48 hr.
  MIC: 1 µg/mL
[4]; Cryptococcus neoformans, SLPBC0012854, 72 h, read-out: Minimum Inhibitory Conc. (MIC), 72 hr.
  MIC: 1 µg/mL
[5]; Candida tropicalis, ATCC28707, 24 h, read-out: Minimum Inhibitory Conc. (MIC), 24 hr.
  MIC: 0.5 µg/mL
[5]; Candida tropicalis, ATCC28707, 48 h, read-out: Minimum Inhibitory Conc. (MIC), 48 hr.
  MIC: 0.5 µg/mL
[6]; Cryptococcus neoformans, 48 h, read-out: Minimum Inhibitory Conc. (MIC), 48 hr.
  MIC: 1 µg/mL
[6]; Cryptococcus neoformans, 72 h, read-out: Minimum Inhibitory Conc. (MIC), 72 hr.
  MIC: 1 µg/mL
[7]; JHCBC9951635, 24 h, read-out: Minimum Inhibitory Conc. (MIC), 24 hr., Torulopsis glabrata, 2nd pair of lines, read at 24 hr
  MIC: 1 µg/mL
[7]; JHCBC9951635, 48 h, read-out: Minimum Inhibitory Conc. (MIC), 48 hr., Torulopsis glabrata, 2nd pair of lines, read at 48 hr
  MIC: 2 µg/mL
[7]; [11]
  Minimum Inhibitory Conc. (MIC), 24 hr.: 2 µg/mL
[8]; [13]
  Minimum Inhibitory Conc. (MIC), 24 hr.: 0.5 µg/mL
[8]; KJP000531594, 24 h, read-out: Minimum Inhibitory Conc. (MIC), 24 hr., Candida albicans, 1st pair of lines, read at 24 hr, isolate not given, assigned by line order and MLC of Table 4B
  MIC: 1 µg/mL
[8]; KJP000531594, 48 h, read-out: Minimum Inhibitory Conc. (MIC), 48 hr., Candida albicans, 1st pair of lines, read at 48 hr, isolate assigned by line order
  MIC: 1 µg/mL

## Fc1cc(F)c2[nH]c(CCCC[n+]3cccc4ccccc43)cc2c1 [Compound 0409]
[1]
  Minimum Lethal Concentration (MLC), A: 1 µg/mL
[2]
  Minimum Lethal Concentration (MLC), D: 1 µg/mL
[3]
  Minimum Lethal Concentration (MLC), F: 2 µg/mL
[4]
  Minimum Lethal Concentration (MLC), H: 2 µg/mL
[5]
  Minimum Lethal Concentration (MLC), B: 0.5 µg/mL
[6]
  Minimum Lethal Concentration (MLC), G: 2 µg/mL
[7]
  Minimum Lethal Concentration (MLC), E: 2 µg/mL
[8]
  Minimum Lethal Concentration (MLC), C: 1 µg/mL

## COC(=O)c1cc2cc(OCc3ccccc3)ccc2n1CCCCCCOC(=O)c1cccnc1 [Compound 0951]
[1]
  Minimum Lethal Concentration (MLC), A: 1 µg/mL
[2]
  Minimum Lethal Concentration (MLC), D: 2 µg/mL
[3]
  Minimum Lethal Concentration (MLC), F: 2 µg/mL
[4]
  Minimum Lethal Concentration (MLC), H: 4 µg/mL
[5]
  Minimum Lethal Concentration (MLC), B: 1 µg/mL
[6]
  Minimum Lethal Concentration (MLC), G: 4 µg/mL
[7]
  Minimum Lethal Concentration (MLC), E: 2 µg/mL
[8]
  Minimum Lethal Concentration (MLC), C: 1 µg/mL

## OC(Cn1cncn1)(Cn1cncn1)c1ccc(F)cc1F [Fluconazole]
[1]; Candida tropicalis, ATCC750, 24 h, Candida tropicalis, 2nd pair of lines, read at 24 hr, isolate assigned by line order, read-out: Minimum Inhibitory Conc. (MIC), 24 hr.
  MIC: 1 µg/mL (≈ 3.27 µM)
[1]; Candida tropicalis, ATCC750, 48 h, Candida tropicalis, 2nd pair of lines, read at 48 hr, isolate assigned by line order, read-out: Minimum Inhibitory Conc. (MIC), 48 hr.
  MIC: 4 µg/mL (≈ 13.1 µM)
[4]; Cryptococcus neoformans, SLPBC0012854, 48 h, Cryptococcus neoformans, 2nd pair of lines, read at 48 hr, isolate assigned by line order, read-out: Minimum Inhibitory Conc. (MIC), 48 hr.
  MIC: 4 µg/mL (≈ 13.1 µM)
[4]; Cryptococcus neoformans, SLPBC0012854, 72 h, Cryptococcus neoformans, 2nd pair of lines, read at 72 hr, isolate assigned by line order, read-out: Minimum Inhibitory Conc. (MIC), 72 hr.
  MIC: 4 µg/mL (≈ 13.1 µM)
[6]; [10]
  Minimum Inhibitory Conc. (MIC), 72 hr.: 64 µg/mL
[6]; Cryptococcus neoformans, 48 h, Cryptococcus neoformans, 1st pair of lines, read at 48 hr, isolate assigned by line order, read-out: Minimum Inhibitory Conc. (MIC), 48 hr.
  MIC: > 64 µg/mL
[6]; Cryptococcus neoformans, 72 h, Cryptococcus neoformans, 1st pair of lines, read at 72 hr, isolate assigned by line order, read-out: Minimum Inhibitory Conc. (MIC), 72 hr.
  MIC: > 64 µg/mL
[7]; JHCBC9951635, 24 h, Torulopsis glabrata, 2nd pair of lines, read at 24 hr, read-out: Minimum Inhibitory Conc. (MIC), 24 hr.
  MIC: 2 µg/mL (≈ 6.53 µM)
[7]; JHCBC9951635, 48 h, Torulopsis glabrata, 2nd pair of lines, read at 48 hr, read-out: Minimum Inhibitory Conc. (MIC), 48 hr.
  MIC: 8 µg/mL (≈ 26.1 µM)
[7]; [12]
  Minimum Inhibitory Conc. (MIC), 48 hr.: 4 µg/mL
[8]; [14]
  Minimum Inhibitory Conc. (MIC), 48 hr.: 2 µg/mL
[8]; KJP000531594, 24 h, 1st pair of lines, read at 24 hr, isolate not given, assigned by line order and MLC of Table 4B, read-out: Minimum Inhibitory Conc. (MIC), 24 hr.
  MIC: 0.5 µg/mL (≈ 1.63 µM)
[8]; KJP000531594, 48 h, 1st pair of lines, read at 48 hr, isolate assigned by line order, read-out: Minimum Inhibitory Conc. (MIC), 48 hr.
  MIC: 1 µg/mL (≈ 3.27 µM)
